These results are taken from US5698538A, “Boronic acid and ester inhibitors of thrombin” (The DuPont Merck Pharmaceutical Company, priority 1996, dated 1997).

Structures are written as SMILES. Read-outs that look alike come from different tables or passages of the source.

Common to all, as to assay type: biochemical
For one test, the target named is T1, human factor VIIa (Homo sapiens, UniProt P08709).
T1 construct: Factor VIIa in the extrinsic pathway; purchased BiosPacific, Emeryville, Calif
T1 sequence (P08709 213-466 limits assumed): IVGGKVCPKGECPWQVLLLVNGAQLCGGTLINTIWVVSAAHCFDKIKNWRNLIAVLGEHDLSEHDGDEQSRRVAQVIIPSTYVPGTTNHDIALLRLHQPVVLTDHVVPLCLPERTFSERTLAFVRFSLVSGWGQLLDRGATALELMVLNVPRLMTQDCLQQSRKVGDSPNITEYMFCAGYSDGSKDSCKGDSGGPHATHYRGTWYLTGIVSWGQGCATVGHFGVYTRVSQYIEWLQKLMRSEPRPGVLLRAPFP
T1 sequence (P08709 61-212 partner limits assumed): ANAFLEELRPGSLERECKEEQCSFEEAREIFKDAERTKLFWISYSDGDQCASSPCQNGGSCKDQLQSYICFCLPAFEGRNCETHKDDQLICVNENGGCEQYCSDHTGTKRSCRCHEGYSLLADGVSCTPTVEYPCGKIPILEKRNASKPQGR
Put plainly: Inhibition of human factor VIIa (chromogenic substrate S2288), inhibitory constant Ki. The procedure: (§1) The effectiveness of compounds of the present invention as inhibitors of blood coagulation proteases was determined using purified human proteases and synthetic substrates following procedures similar to those described in Kettner et al. (1990).
(§2) For these assays, the rate of enzymatic (thrombin, Factor Xa, and Factor VIIa) hydrolysis of chromogenic substrates (S2238 (H-D-Phe-Pip-Arg-pNA), S2222, and S2288, respectively; Kabi Pharmacia, Franklin, Ohio.) was measured both in the absence and presence of compounds of the present invention. […] A decrease in the rate of absorbance change at 405 nm in the presence of inhibitor is indicative of enzyme inhibition. The results of this assay are expressed as inhibitory constant, Ki.
(§3) Thrombin and Xa determinations were made in 0.10M sodium phosphate buffer, pH 7.5, containing 0.20M NaCl, and 0.5% PEG 8000. VIIa determinations were made in 0.05M tris buffer, pH 7.6, containing 0.10M NaCl, 4 mM CaCl2, and 0.1% bovine serum albumin. The Michaelis constant, Km, for substrate hydrolysis was determined at 5° C. using the method of Lineweaver and Burk.
(§4) Values of Ki were determined by allowing 0.2-0.5 nM human thrombin or human factor Xa (Enzyme Research Laboratories, South Bend, Ind.), or 50 nM human factor VIIa (BiosPacific, Emeryville, Calif.) react with the substrate (0.20 mM-1 mM) in the presence of inhibitor. Reactions were allowed to go for 30 minutes and the velocities (rate of absorbance change vs time) were measured in the time frame of 25-30 minutes. The following relationship was used to calculate Ki values. [formula] where: vo is the velocity of the control in the absence of inhibitor;
(§5) vs is the velocity in the presence of inhibitor;
(§6) I is the concentration of inhibitor;
(§7) Ki is the dissociation constant of the enzyme: inhibitor complex;
(§8) S is the concentration of substrate;
(§9) Km is the Michaelis constant.

A further test concerns the target T2, human factor Xa (Homo sapiens, UniProt P00742).
T2 construct: purchased Enzyme Research Laboratories, South Bend, Ind
Put plainly: Inhibition of human factor Xa (chromogenic substrate S2222), inhibitory constant Ki. The following applies: S2222, pH 7.5, 30 minutes, read-out: Ki values for inhibition of Serine Proteases: Factor Xa. The procedure: as §1, §2, §3, §4, §5, §6, §7, §8, §9

The target in another test is T3, human thrombin (Homo sapiens, UniProt P00734).
T3 construct: purchased Enzyme Research Laboratories, South Bend, Ind
The test is described as follows: Inhibition of human thrombin (chromogenic substrate S2238), inhibitory constant Ki. The following applies: 0.2-0.5 nM human thrombin, S2238, pH 7.5, 30 minutes; read-out: Ki values for inhibition of Serine Proteases: Thrombin. The procedure: as §1, §2, §3, §4, §5, §6, §7, §8, §9

Where [1] appears, read: 50 nM human factor VIIa, S2288, pH 7.6, 4 mM CaCl2, 30 minutes, read-out: Ki values for inhibition of Serine Proteases: Factor VIIa.

T2 sequence (P00742 235-488 limits assumed): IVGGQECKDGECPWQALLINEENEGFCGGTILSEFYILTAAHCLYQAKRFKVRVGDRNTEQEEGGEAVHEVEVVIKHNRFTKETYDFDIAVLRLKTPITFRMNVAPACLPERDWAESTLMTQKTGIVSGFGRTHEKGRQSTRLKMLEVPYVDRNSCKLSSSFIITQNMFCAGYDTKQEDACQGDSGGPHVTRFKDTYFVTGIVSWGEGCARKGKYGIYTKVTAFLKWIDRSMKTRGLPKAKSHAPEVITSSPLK
T2 sequence (P00742 41-179 partner limits assumed): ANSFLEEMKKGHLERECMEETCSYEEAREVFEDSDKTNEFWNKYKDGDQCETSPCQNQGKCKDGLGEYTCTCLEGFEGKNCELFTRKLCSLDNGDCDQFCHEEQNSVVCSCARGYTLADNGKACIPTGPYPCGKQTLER

On to `CC1(C)C2CC3OB([C@H](CCCCN)NC(=O)Cn4nc(Cc5ccccc5)nc4CO)OC3(C)C1C2` (single isomer, unassigned) [Example 2439], for which the inhibition constant Ki at human factor VIIa (setting [1]) was 500 to 50000 nM; on human factor Xa, 500 to 50000 nM; on human thrombin, < 500 nM.

For `CC1(C)C2CC3OB([C@H](CCCCN)NC(=O)Cn4nc(Cc5ccccc5)nc4COCc4ccccc4)OC3(C)C1C2` (single isomer, unassigned) [Example 2440], the Ki was 500 to 50000 nM at human factor VIIa (setting [1]), 500 to 50000 nM on human factor Xa and < 500 nM at human thrombin.

Take `CC1(C)C2CC3OB([C@H](CCCNC(=N)N)NC(=O)Cn4nc(Cc5ccccc5)nc4-c4ccccc4)OC3(C)C1C2` (single isomer, unassigned) [Example 2490]: the figures for the Ki at human factor VIIa (setting [1]), at human factor Xa and on human thrombin were < 500 nM, 500 to 50000 nM and < 500 nM, respectively.

For `CC1(C)C2CC3OB([C@H](CCCNC(=N)N)NC(=O)Cn4nc(Cc5ccccc5)nc4-c4cccc([N+](=O)[O-])c4)OC3(C)C1C2` (single isomer, unassigned) [Example 2491], the values for the Ki on human factor VIIa (setting [1]), at human factor Xa and at human thrombin were 500 to 50000 nM, < 500 nM and < 500 nM, respectively.

For the compound `CC1(C)C2CC3OB([C@H](CCCCN)NC(=O)Cn4nc(CCc5ccccc5)nc4CO)OC3(C)C1C2` (single isomer, unassigned) [Example 2780], the Ki is < 500 nM at human factor VIIa (setting [1]), 500 to 50000 nM on human factor Xa and < 500 nM on human thrombin.

Regarding `CC1(C)C2CC3OB([C@H](CCCCN)NC(=O)Cn4nc(CCc5ccccc5)nc4COCc4ccccc4)OC3(C)C1C2` (single isomer, unassigned) [Example 2781], the Ki on human factor VIIa (setting [1]) is 500 to 50000 nM; at human factor Xa it was 500 to 50000 nM; on human thrombin, < 500 nM.

As to `CC1(C)C2CC3OB([C@H](CCCCN)NC(=O)c4cnc(-c5ccccc5)nc4-c4ccccc4)OC3(C)C1C2` (single isomer, unassigned) [Example 3465], the Ki at human factor VIIa (setting [1]) was 500 to 50000 nM; on human factor Xa, 500 to 50000 nM; at human thrombin, < 500 nM.

Consider `CC1(C)[C@@H]2C[C@H]3OB([C@H](CCCNC(=N)N)NC(=O)c4cccc(-c5ccccc5)c4)O[C@@]3(C)[C@H]1C2` [Example 2], for which the Ki at human factor VIIa (setting [1]), on human factor Xa and at human thrombin was < 500 nM in each case.

As for `CC1(C)[C@@H]2C[C@H]3OB([C@H](CCCSC(=N)N)NC(=O)c4cccc(-c5ccccc5)c4)O[C@@]3(C)[C@H]1C2` [Example 35], the Ki was 500 to 50000 nM at human factor VIIa (setting [1]), < 500 nM on human factor Xa and < 500 nM on human thrombin.

In the case of `CC1(C)[C@@H]2C[C@H]3OB([C@H](CCCCN)NC(=O)c4cccc(-c5ccccc5)c4)O[C@@]3(C)[C@H]1C2` [Example 68], the Ki is < 500 nM at human factor VIIa (setting [1]), 500 to 50000 nM on human factor Xa and < 50000 nM on human thrombin.

Consider `CC1(C)[C@@H]2C[C@H]3OB([C@H](CCCNC(=N)N)NC(=O)c4ccc(-c5ccccc5)cc4F)O[C@@]3(C)[C@H]1C2` [Example 199], for which the Ki on human factor VIIa (setting [1]), at human factor Xa and on human thrombin was < 500 nM in each case.

Take `CC1(C)[C@@H]2C[C@H]3OB([C@H](CCCNC(=N)N)NC(=O)c4ccc(-c5ccccc5)cc4[N+](=O)[O-])O[C@@]3(C)[C@H]1C2` [Example 203]: the Ki at human factor VIIa (setting [1]), at human factor Xa and on human thrombin was < 500 nM each time.

On to `Cc1cc(-c2ccccc2S(=O)(=O)NC(C)(C)C)ccc1C(=O)N[C@@H](CCCNC(=N)N)B(O)O` [Example 224], for which the inhibitory constant (Ki) on human factor VIIa (setting [1]), at human factor Xa and on human thrombin was < 500 nM in each case.

As to `Cc1cc(-c2ccccc2S(N)(=O)=O)ccc1C(=O)N[C@@H](CCCNC(=N)N)B1O[C@@H]2C[C@@H]3C[C@@H](C3(C)C)[C@]2(C)O1` [Example 227], the Ki was 500 to 50000 nM at human factor VIIa (setting [1]), < 500 nM on human factor Xa and < 500 nM on human thrombin.

With `COC(=O)NS(=O)(=O)c1ccccc1-c1ccc(C(=O)N[C@@H](CCCNC(=N)N)B2O[C@@H]3C[C@@H]4C[C@@H](C4(C)C)[C@]3(C)O2)c(C)c1` [Example 231], the inhibitory constant (Ki) was 500 to 50000 nM on human factor VIIa (setting [1]), < 500 nM at human factor Xa and < 500 nM at human thrombin.

Take `CC(C)(C)NS(=O)(=O)c1ccccc1-c1ccc(C(=O)N[C@@H](CCCNC(=N)N)B2O[C@@H]3C[C@@H]4C[C@@H](C4(C)C)[C@]3(C)O2)cc1` [Example 261]: the Ki at human factor VIIa (setting [1]), on human factor Xa and on human thrombin was < 500 nM in each case.

`CC(C)(C)NS(=O)(=O)c1ccccc1-c1ccc(C(=O)N[C@@H](CCCNC(=N)N)B2O[C@@H]3C[C@@H]4C[C@@H](C4(C)C)[C@]3(C)O2)c(Cl)c1` [Example 262]: the inhibition constant Ki on human factor VIIa (setting [1]), on human factor Xa and at human thrombin was < 500 nM throughout.

With `CC(C)(C)NS(=O)(=O)c1ccccc1-c1ccc(C(=O)N[C@@H](CCCNC(=N)N)B(O)O)cc1` [Example 263], the Ki on human factor VIIa (setting [1]), on human factor Xa and at human thrombin was < 500 nM in each case.

With `Cc1cc(-c2cccc(NC(=O)OC(C)(C)C)c2)ccc1C(=O)N[C@@H](CCCNC(=N)N)B1O[C@@H]2C[C@@H]3C[C@@H](C3(C)C)[C@]2(C)O1` [Example 283], the inhibition constant (Ki) was 500 to 50000 nM on human factor VIIa (setting [1]), < 500 nM on human factor Xa and < 500 nM on human thrombin.

Consider `CCN(CC)S(=O)(=O)c1ccccc1-c1ccc(C(=O)N[C@@H](CCCNC(=N)N)B2O[C@@H]3C[C@@H]4C[C@@H](C4(C)C)[C@]3(C)O2)c(C)c1` [Example 286], for which the Ki on human factor VIIa (setting [1]), on human factor Xa and on human thrombin was < 500 nM throughout.

On to `CC1(C)[C@@H]2C[C@H]3OB([C@H](CCCNC(=N)N)NC(=O)c4ccc(-c5ccccc5)c([N+](=O)[O-])c4)O[C@@]3(C)[C@H]1C2` [Example 298], for which the inhibition constant Ki at human factor VIIa (setting [1]), on human factor Xa and on human thrombin was < 500 nM in each case.

Take `CC1(C)[C@@H]2C[C@H]3OB([C@H](CCCNC(=N)N)NC(=O)c4ccc(-c5ccccc5)c(N)c4)O[C@@]3(C)[C@H]1C2` [Example 299]: the Ki at human factor VIIa (setting [1]), on human factor Xa and on human thrombin was < 500 nM in each case.

As to `CC(C)(C)NS(=O)(=O)c1ccccc1-c1ccc(C(=O)N[C@@H](CCCNC=N)B2O[C@@H]3C[C@@H]4C[C@@H](C4(C)C)[C@]3(C)O2)cc1` [Example 302], the Ki on human factor VIIa (setting [1]) is 500 to 50000 nM; on human factor Xa, < 500 nM; at human thrombin it was < 500 nM.

For the compound `CC(C)(C)OC(=O)Nc1cc(-c2ccccc2)ccc1C(=O)N[C@@H](CCCNC(=N)N)B1O[C@@H]2C[C@@H]3C[C@@H](C3(C)C)[C@]2(C)O1` [Example 303], the Ki at human factor VIIa (setting [1]) is 500 to 50000 nM; at human factor Xa, 500 to 50000 nM; at human thrombin, < 500 nM.

With `COCCC[C@H](NC(=O)c1ccc(-c2ccccc2S(N)(=O)=O)cc1C)B1O[C@@H]2C[C@@H]3C[C@@H](C3(C)C)[C@]2(C)O1` [Example 305], the Ki at human factor VIIa (setting [1]) was 500 to 50000 nM; on human factor Xa, 500 to 50000 nM; at human thrombin it was < 50000 nM.

Take `CC1(C)[C@@H]2C[C@H]3OB([C@H](CCCCN)NC(=O)c4ccc(-c5ccccc5)nc4)O[C@@]3(C)[C@H]1C2` [Example 468]: the Ki on human factor VIIa (setting [1]) was 500 to 50000 nM; at human factor Xa it was 500 to 50000 nM; on human thrombin, < 50000 nM.

Regarding `NCCCC[C@H](NC(=O)c1ccc(-c2ccccc2)nc1)B(O)O` [Example 474], the Ki on human factor VIIa (setting [1]) is 500 to 50000 nM; at human factor Xa, 500 to 50000 nM; on human thrombin it was < 50000 nM.

For `Cc1nc(Cc2ccccc2)n(CC(=O)N[C@@H](CCCCN)B2O[C@@H]3C[C@@H]4C[C@@H](C4(C)C)[C@]3(C)O2)n1` [Example 888], the inhibition constant (Ki) was 500 to 50000 nM at human factor VIIa, 500 to 50000 nM at human factor Xa and < 500 nM on human thrombin.

Turning to `CCCc1nc(Cc2ccccc2)n(CC(=O)N[C@@H](CCCCN)B2O[C@@H]3C[C@@H]4C[C@@H](C4(C)C)[C@]3(C)O2)n1` [Example 890], the Ki is 500 to 50000 nM at human factor VIIa (setting [1]), 500 to 50000 nM on human factor Xa and < 500 nM at human thrombin.
